Data published in patent US12465582B2, “(S)-2-amino-6-((3-aminopropyl)amino)hexanoic acid (APL) for use in the treatment of non-alcoholic steatohepatitis (NASH), liver inflammation, hepatocellular ballooning, liver fibrosis and steatosis” (Temple University—Of The Commonwealth System Of Higher …, priority 2020, dated 2025).

How the values were obtained:
Assay type in all cases: in vivo
[1] = tested on: Zucker (fa/fa) obese rats; assay: Hepatic fibrosis: H&E and Mason trichrome liver histology in Zucker rat NASH model; details: 100 mg/kg APL p.o. b.i.d., 78 days
From the text: (§1) Zucker (fa/fa) obese rats and Zucker (Fa/fa) lean rats (7-week old male animals obtained from Charles Rivers Laboratories, Wilmington, MA, USA) were maintained in individual cages (1 rat per cage to encourage sedentary activity) and had free access to standard rodent chow (Cat #5053 obtained from Labdiet, Saint Louis, MO) and water for (filtered and packed using a Hydrapak system) for 7 days until the start of the experiment. Zucker (fa/fa) obese rats were randomly assigned to two groups: 1) vehicle p.o.b.i.d. (oral administration, twice a day) for 78 days; and 2) 100 milligram per kilogram (mg/kg) body weight APL (p.o.b.i.d.) for 78 days. Zucker (Fa/fa) lean rats served as control. The APL dosage was 100 mg/kg/day. Animals were fed ad libitum. The animals were humanely euthanized, and the livers were removed for histological analysis. Liver samples in formalin were allowed to fix for 48 hours, and processed into FFPE blocks after fixations. Slides were stained with hematoxylin and eosin (H&E) and Mason trichrome staining.

[2] = tested on: C57BL/6J mice fed high fat/high fructose diet (HFD); assay: Hepatic steatosis: liver histology (H&E, BODIPY/DAPI) in HFD mouse NASH model
From the text: As in Example 1, C57BL/6 mice (same sample of mice as in Example 1) were maintained in cages (5 mice per cage) and had free access to standard rodent chow (Cat #5053, obtained from Labdiet, Saint Louis, MO) and water (filtered and packed using a Hydrapak system) for 5 days. […] The APL dose was 200 milligram per kilogram (mg/kg) per day, administered as two 100 milligram per kilogram (mg/kg) body weight APL (p.o.b.i.d.). Animals were fed ad libitum. The animals were humanely euthanized, and the livers were removed for histological analysis. Liver samples in formalin were allowed to fix for 48 hours, and processed into FFPE blocks after fixations. Slides were stained with hematoxylin and eosin (H&E) and to immunostaining with BODIPY and DAPI to quantitate fat deposition and nuclei number using confocal microscopy. See, e.g., Rico et al, 2007, J Cell Physiol, 211(2):504-12; and Daemen et al, 2016, Mol Metab, 5(3) 153-63. The data are depicted in FIGS. 3, 4, and 5
FIG. 5D is the plot of fat deposition assessed using confocal microscopy. Measurements were made in 20×-magnification fields. More than 21 fields from three different animals from each group were analyzed: Chow-vehicle (#fields=26), HFD-Vehicle (#fields=25) and HFD-APL (#fields=23). Indirect measurement using imageJ (Schneider et al., 2012, Nature Methods 9(7): 671-675) was used to calculate fat deposition. Fat deposition was increased 3-fold in HFD/vehicle-treated mice compared with CHOW control mice and with HFD/APL-treated mice (***p<0.001).

[3] = tested on: C57BL/6J mice fed high fat/high fructose diet (HFD); assay: Glucose tolerance test (GTT) in diet-induced obesity (HFD) mouse model of NASH; details: APL 200 mg/kg/day p.o. in two doses, 130 days
From the text: C57BL/6J mice 5 week old male mice obtained from Jackson Laboratories, Bar Harbor, ME, USA) were maintained in cages (5 mice per cage) and had free access to standard rodent chow (Cat #5053, obtained from Labdiet, Saint Louis, MO) and water (filtered and packed using a Hydrapak system) for 5 days until the start of the experiment. The animals were then randomly assigned to five groups (n=5 for each group) receiving different diets and treatments as shown in Table A for 130 days. Each treatment was administered p.o.b.i.d. The APL dosage administered to each animal was 200 milligrams per kilogram of body weight divided in two dosages per day, via oral gavage and the pioglitazone dosage received each animal was 20 milligrams per kilogram of body weight divided in two dosages per day, via oral gavage. “HFD” is high fat/high fructose diet, which contains 58% fat, 25% carbohydrate and 17% protein. HFD was obtained from Research Diets, Inc. “Chow” refers to standard rodent chow (Cat #5053, obtained from Labdiet, Saint Louis, MO). Animals were fed ad libitum, except during the GTT experiments.
At the conclusion of the experimental time period (78 days for rats and 130 days for mice), the animals were subjected to a glucose tolerance test (GTT) as follows. Animals were fasted for 5 hours, weights, and their tails were clipped to measure fasting blood glucose levels. Immediately after, glucose (2 mg/g body weight) was administered orally. Glucose levels were measured at 0, 15, 30, 45, 60, and 120 minutes after glucose administration. Glucose was measured using the AlphaTRAK 2 glucometer from Abbott

[4] = tested on: C57BL/6J mice fed AMLN diet changed to HFD; assay: Liver function serum biomarkers in AMLN diet mouse model of NASH; details: 16 weeks (week 50-66)
Procedure: C57BL/6 mice were maintained in cages and had free access to standard rodent chow (Cat #5053, obtained from Labdiet, Saint Louis, MO) and water. C57BL/6J mice were fed either CHOW (negative control) or amylin liver NASH (AMLN) diet (58% high fat, 25% carbohydrate, 2% cholesterol) for twenty (20) weeks. Beginning at twenty (20) weeks, animals fed AMLN diet were changed to HFD. At fifty (50) weeks, animals were treated twice daily (b.i.d.) with oral administration (p.o.) of either vehicle (positive control) or APL (treated).

[5] = tested on: 4-hydroxynonenal (4-HNE) in liver of Zucker (fa/fa) obese rats; assay: Hepatic 4-HNE immunofluorescence (protein carbonyls) in rat NASH model
From the text: as §1
Liver samples from the Zucker rats in Example 4 were stained with an anti-4HNE antibody from Abcam (catalog #ab46545) for immunofluorescent analysis of the presence of 4-HNE. The data are depicted in FIG. 9. FIG. 9A are representative images of 4-HNE immunofluorescence liver sections from Zucker (Fa/fa) lean rats, Zucker (fa/fa) obese rats administered vehicle, and Zucker (fa/fa) obese rats administered vehicle administered APL. FIG. 9B is a plot of the 4HNE immunofluorescence intensity per tissue area, and FIG. 9C is a plot of total tissue area. […] Cytotoxic lipid by products such as 4-HNE are known to be elevated in human NASH livers as compared to healthy livers. See e.g., Serviddio et al., Uncoupling protein-2 (UCP2) induces mitochondrial proton leak and increases susceptibility of non-alcoholic steatohepatitis (NASH) liver to ischaemia-reperfusion injury. Gut. 2008 July; 57(7):957-65. doi: 10.1136/gut.2007.147496. Epub 2008 Feb. 28. The data implies that 4-HNE plays a crucial role in the pathogenesis of NASH.

[6] = HFD mice, APL 200 mg/kg/day p.o. b.i.d., 20 weeks
[7] = Zucker obese rats, 100 mg/kg APL p.o. b.i.d., 78 days, ***p<0.001

NCCCNCCCC[C@H](N)C(=O)O [APL, (S)-2-amino-6-((3-aminopropyl)amino)hexanoic acid]
liver morphology, H&E (FIG. 8A) [1]: preserve the normal morphology of the liver
liver collagen fibers, Mason trichrome blue staining (FIG. 8B/8C) ([1]; vs multiple collagen fibers with vehicle): minimum blue staining
number of nuclei (DAPI) of HFD/vehicle mice compared to mice fed HFD and treated with APL ([2]; APL 200 mg/kg/day p.o. b.i.d., ***p<0.001): statistically significant fewer
fat deposition, increase in HFD/vehicle-treated mice compared with HFD/APL-treated mice ([2]; APL 200 mg/kg/day p.o. b.i.d., confocal microscopy, ImageJ, ***p<0.001): 3 fold
hepatocyte ballooning induced by HFD in H&E liver sections (FIG. 3) ([2]; HFD mice treated with APL for 131 days, 20x magnification): minimal or no ballooning
anatomical structure of the liver, H&E (FIG. 5A) ([2]; HFD mice, APL 200 mg/kg/day p.o. b.i.d.): retained the normal anatomy of the liver
hepatocyte fat accumulation, inflammatory infiltration and hepatocyte ballooning in H&E liver sections ([2]; HFD mice, APL 200 mg/kg/day p.o. b.i.d., 18 weeks, vs HFD vehicle): less severe
fat deposition, treated group vs negative control (chow vehicle) [2, 6]: No significant statistical difference
number of nuclei (hepatocytes), treated group vs negative control (chow vehicle) [2, 6]: no statistical differences
AUC of GTT of HFD/vehicle mice compared to mice fed HFD and treated with APL ([3]; **p<0.01): significantly higher
blood glucose levels in GTT, treated vs negative control (chow vehicle) ([3]; HFD mice, any time point 0-120 min): no significant statistical difference
blood glucose levels in GTT, treated vs positive control (HFD vehicle) ([3]; HFD mice, at 15-min (p<0.0001), 60-min (p<0.05), 120-min (p<0.001)): significant statistical difference
serum ALP vs positive control ([4]; APL 50 mg/kg/day p.o. b.i.d.): significant reduction
serum ALT vs positive control ([4]; APL 50 mg/kg/day p.o. b.i.d.): significant reduction
serum AST vs positive control ([4]; APL 50 mg/kg/day p.o. b.i.d.): significant reduction
serum nonesterified fatty acids (NEFA) vs positive control ([4]; APL 50 mg/kg/day p.o. b.i.d.): significant reduction
serum triglycerides vs positive control ([4]; APL 50 mg/kg/day p.o. b.i.d.): significant reduction
serum cholesterol vs positive control ([4]; APL 200 mg/kg/day p.o. b.i.d.): significant reduction
hepatic 4-HNE intensity / total tissue area, treated vs negative control ([5]; Zucker obese rats treated with APL vs lean control): No significant statistical difference
hepatic 4-HNE immunofluorescence intensity per tissue area, treated vs obese vehicle [5, 7]: significantly reduces
total liver tissue area (FIG. 9C), treated vs obese vehicle [5, 7]: maintains the total liver tissue area
